Reference: ChEMBL document CHEMBL1201862, “PubChem BioAssay data set” (2004)
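Five compound concentrations were applied to cells in 96-well plates for 48 hours; endpoints were derived by simple linear interpolation of the resulting dose-response curve. Abbreviation: GI50, concentration required for 50% inhibition of growth.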 Active and inactive are the calls of the source. Rule as the data show it: active = GI50 up to about 1.1 µM and inactive = higher.

What was measured:
Test in all cases: growth of human tumour cells (NCI), 48 h
UO-31 = test system: UO-31
MCF7 = test system: MCF7
KM12 = test system: KM12
SN12C = test system: SN12C
HCT-116 = test system: HCT-116
MOLT-4 = test system: MOLT-4
RXF 393 = test system: RXF 393
T47D = test system: T47D
HOP-92 = test system: HOP-92
COLO 205 = test system: COLO 205
MDA-MB-435 = test system: MDA-MB-435
EKVX = test system: EKVX
CAKI-1 = test system: CAKI-1
MDA-MB-231 = test system: MDA-MB-231
ACHN = test system: ACHN
SW-620 = test system: SW-620
OVCAR-3 = test system: OVCAR-3
OVCAR-8 = test system: OVCAR-8
MDA-N = test system: MDA-N
NCI-H226 = test system: NCI-H226
SF-268 = test system: SF-268
UACC-62 = test system: UACC-62
SK-MEL-5 = test system: SK-MEL-5
HOP-62 = test system: HOP-62
SK-OV-3 = test system: SK-OV-3
M14 = test system: M14
SNB-19 = test system: SNB-19
K562 = test system: K562
BT-549 = test system: BT-549
HCT-15 = test system: HCT-15
SNB-75 = test system: SNB-75
SK-MEL-28 = test system: SK-MEL-28
UACC-257 = test system: UACC-257
Hs-578T = test system: Hs-578T
HT-29 = test system: HT-29
OVCAR-5 = test system: OVCAR-5
786-0 = test system: 786-0
NCI-H522 = test system: NCI-H522
NCI-H460 = test system: NCI-H460
NCI-H23 = test system: NCI-H23
U-251 = test system: U-251
SK-MEL-2 = test system: SK-MEL-2
NCI/ADR-RES = test system: NCI/ADR-RES
HCC 2998 = test system: HCC 2998
LOX IMVI = test system: LOX IMVI
DU-145 = test system: DU-145
RPMI-8226 = test system: RPMI-8226
HL-60 = test system: HL-60
PC-3 = test system: PC-3
OVCAR-4 = test system: OVCAR-4
SF-295 = test system: SF-295
SF-539 = test system: SF-539
IGROV-1 = test system: IGROV-1
A549 = test system: A549
Malme-3M = test system: Malme-3M
CCRF-CEM = test system: CCRF-CEM
TK-10 = test system: TK-10
SR = test system: SR

Measured: GI50

O=c1c2ccccc2nc2n1NC(c1c(Cl)cccc1Cl)N2c1cccc(Cl)c1 (configuration not stated)
inactive: UO-31 2.38 µM | MCF7 1.69 µM | KM12 7.24 µM | SN12C 4.71 µM | HCT-116 3.27 µM | MOLT-4 > 100 µM | RXF 393 4.78 µM | T47D 5.56 µM | HOP-92 4.52 µM | COLO 205 8.53 µM | MDA-MB-435 9.35 µM | EKVX 6.43 µM | CAKI-1 10.8 µM | MDA-MB-231 2.79 µM | ACHN 3.1 µM | SW-620 3.32 µM | OVCAR-3 10.6 µM | OVCAR-8 3.26 µM | MDA-N 5.22 µM | NCI-H226 2.56 µM | SF-268 11.9 µM | UACC-62 5.86 µM | SK-MEL-5 16.6 µM | HOP-62 8.38 µM | SK-OV-3 2.26 µM | M14 7.24 µM | SNB-19 4.43 µM | K562 54.2 µM | BT-549 51.4 µM | SNB-75 2.64 µM | SK-MEL-28 12.7 µM | UACC-257 25.2 µM | Hs-578T 7.55 µM | HT-29 6.73 µM | OVCAR-5 4.54 µM | 786-0 2.1 µM | NCI-H522 10.4 µM | NCI-H460 5.13 µM | NCI-H23 14.6 µM | U-251 2.14 µM | SK-MEL-2 39.1 µM | NCI/ADR-RES 6.44 µM | HCC 2998 4.42 µM | LOX IMVI 6.79 µM | DU-145 11.4 µM | RPMI-8226 4.69 µM | HL-60 > 100 µM | PC-3 5.11 µM | OVCAR-4 2.65 µM | SF-295 9.33 µM | SF-539 11.5 µM | IGROV-1 3.34 µM | A549 5.2 µM | Malme-3M 8.99 µM | CCRF-CEM > 100 µM | TK-10 7.69 µM | SR 8.55 µM
30.3 µM: HCT-15

O=C1CCC2(c3ccccc3)Nc3ccncc3N12 (configuration not stated)
> 10 µM: HCT-15
inactive: UO-31 > 10 µM | MCF7 > 10 µM | KM12 > 10 µM | SN12C > 10 µM | HCT-116 > 10 µM | MOLT-4 > 10 µM | T47D > 10 µM | HOP-92 > 10 µM | MDA-MB-435 > 10 µM | EKVX > 10 µM | MDA-MB-231 > 10 µM | ACHN > 10 µM | SW-620 > 10 µM | OVCAR-3 > 10 µM | OVCAR-8 > 10 µM | MDA-N > 10 µM | NCI-H226 > 10 µM | SF-268 > 10 µM | UACC-62 > 10 µM | SK-OV-3 3.49 µM | M14 > 10 µM | SNB-19 > 10 µM | K562 > 10 µM | BT-549 > 10 µM | SNB-75 > 10 µM | UACC-257 > 10 µM | Hs-578T > 10 µM | HT-29 > 10 µM | OVCAR-5 > 10 µM | 786-0 > 10 µM | NCI-H522 > 10 µM | NCI-H460 > 10 µM | NCI-H23 > 10 µM | U-251 > 10 µM | SK-MEL-2 > 10 µM | NCI/ADR-RES > 10 µM | LOX IMVI > 10 µM | DU-145 > 10 µM | HL-60 > 10 µM | PC-3 > 10 µM | OVCAR-4 > 10 µM | SF-295 > 10 µM | SF-539 > 10 µM | A549 > 10 µM | Malme-3M > 10 µM | CCRF-CEM > 10 µM | TK-10 > 10 µM | SR > 10 µM
